The text below walks through data of US7019034B2, “Compositions and methods for reducing serum glucose and triglyceride levels in diabetic mammals” (Allergan, Inc., priority 2003, dated 2006).

For one series, the target named is T1, RARα (Homo sapiens, UniProt P10276).
T1 sequence (P10276 1-462): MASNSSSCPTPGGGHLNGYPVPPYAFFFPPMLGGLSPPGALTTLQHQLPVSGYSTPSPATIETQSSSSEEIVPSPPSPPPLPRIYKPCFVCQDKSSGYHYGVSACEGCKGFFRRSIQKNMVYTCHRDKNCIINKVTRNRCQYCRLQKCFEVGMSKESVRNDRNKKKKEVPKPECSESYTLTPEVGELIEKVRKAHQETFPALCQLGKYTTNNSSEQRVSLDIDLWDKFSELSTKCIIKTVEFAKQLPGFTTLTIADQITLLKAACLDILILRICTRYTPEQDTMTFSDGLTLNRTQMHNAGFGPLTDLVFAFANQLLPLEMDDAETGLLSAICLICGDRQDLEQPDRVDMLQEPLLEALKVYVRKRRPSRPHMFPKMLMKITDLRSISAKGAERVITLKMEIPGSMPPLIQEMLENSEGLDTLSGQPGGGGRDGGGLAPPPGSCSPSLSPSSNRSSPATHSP
Kind of series: chimeric receptor transactivation assay, RARα. The class given is cell-based. The source says: The specification of U.S. Pat. No. 5,455,265 is hereby expressly incorporated by reference.
Table 1 discloses the activity of certain exemplary compounds of the invention in the above-described receptor transactivation and binding assays. Particularly, the transactivation data pertaining to activation of the RAR receptors were obtained in the chimeric assay, and the transactivation data pertaining to the activation of RXR receptors were obtained in the holoreceptor assay.
Efficacy in a transactivation assay is expressed as a percentage of the maximum potency attained by the compound compared to a standard which, in this case, is the compound named (2E,4E,1′S,2′S)-3-methyl-5-[2′-methyl-2′-(5,5,8,8-tetramethyl-5,6,7,8-tetrahydro-naphthalen-2-yl)-cyclopropyl]-penta-2,4-dienoic acid.
(§1) In Table 1 NA stands for not active at all as an agonist. ND stands for not determined. The first row of numbers pertaining to each compound is the measured EC50 number. […] The third row of numbers pertaining to each compound is the binding Ki number.

In series [1] the test system is diabetic db/db mice. As to the kind of experiment: serum triglycerides in diabetic db/db mice, 7 days oral dosing. Type of series: in vivo. The following applies: for Triglycerides: 50 mg/kg once daily oral gavage, mean +/- SD. On the procedure: (§2) Effects of RXR agonists on serum glucose and triglyceride were studied in diabetic db/db mice. […] Briefly, animals were dosed once daily by oral gavage using corn oil vehicle for a period of 7 consecutive days. Serum samples were collected on day 1 (first day of dosing) and day 7 at hour 0 (immediately prior to dosing) and hour 3 (approximately 3 hours after dosing). Serum glucose and triglyceride levels of these samples were measured as described in the reference manuals: Glucose/HK. Boehringer Mannheim Corporation, 9115 Hague Road, Indianapolis, Ind., USA and Triglycerides/GPO. Roche Diagnostics Corporation, 9115 Hague Road, Indianapolis, Ind., USA, expressly incorporated herein. Only those animals with glucose levels of higher than 300 mg/dl at 0 hour on day 1 were considered as diabetic and included in data analysis.
(§3) A measured amount of dosing solution was withdrawn into a metal feeding tube attached to a marked syringe. Animals were restrained by grasping of their back skin while the feeding tube was gently inserted into their mouth and into esophagus. A fixed amount of the dosing solution was displaced into the esophagus/stomach of the animal by pushing the plunger of the syringe. Serum samples were collected from the retro-orbital sinus while the animals were anesthetized. These samples were analyzed by using commercially available kits from Boehringer Manheim for their glucose levels and Roche Diagnostics for their triglyceride levels in a Boehringer Manheim Hatachi Clinical Chemistry Analyzer.
(§4) For glucose assay, an enzymatic reaction using hexokinase and glucose-6-phosphodehydrogenase to catalyze glucose to gluconate-6phosphate and NADPH was employed. The amount of NADPH formed during these reactions was equivalent to the amount of glucose in the serum and was measured with a spectrophotometer. For triglycerides, a series of enzymatic reactions which included lipase, glycerol kinase and glycerol phosphate oxidase to formed dihydroacetone phosphate and peroxidase. The peroxidase produced catalyzed a reaction between peroxide and 4-aminophenazone and 4-chlorophenol in a Trinder reaction to generate a color change. This color change was measured by a spectrophotometer and reflected the amount of triglyceride in the sample.

The test system of series [2] is diabetic db/db mice. As to the kind of experiment: serum glucose in diabetic db/db mice, 7 days oral dosing. To be noted: for Glucose: 50 mg/kg once daily oral gavage, mean +/- SD. The class given is in vivo. On the procedure: as §2, §3, §4
The subject of a further series is young db/db mice. As to the kind of experiment: serum thyroxine (T4) in young db/db mice, 14 days oral dosing. Type of series: in vivo. On the procedure: In another study the efficacy of RXR agonists in the prevention of diabetes was tested in young db/db mice. […] Serum samples were analyzed by using commercially available kits from Boehring Manheim for their thyroxine (T4) levels in a Boehringer Manheim Hatachi Clinical Chemistry Analyzer as described in the reference manual of Boehringer Mannheim Corporation, 9115 Hague Road, Indianapolis, Ind., USA, expressly incorporated herein.

A further series has as its target T2, RXRγ (UniProt P28705).
T2 sequence (P28705 1-463): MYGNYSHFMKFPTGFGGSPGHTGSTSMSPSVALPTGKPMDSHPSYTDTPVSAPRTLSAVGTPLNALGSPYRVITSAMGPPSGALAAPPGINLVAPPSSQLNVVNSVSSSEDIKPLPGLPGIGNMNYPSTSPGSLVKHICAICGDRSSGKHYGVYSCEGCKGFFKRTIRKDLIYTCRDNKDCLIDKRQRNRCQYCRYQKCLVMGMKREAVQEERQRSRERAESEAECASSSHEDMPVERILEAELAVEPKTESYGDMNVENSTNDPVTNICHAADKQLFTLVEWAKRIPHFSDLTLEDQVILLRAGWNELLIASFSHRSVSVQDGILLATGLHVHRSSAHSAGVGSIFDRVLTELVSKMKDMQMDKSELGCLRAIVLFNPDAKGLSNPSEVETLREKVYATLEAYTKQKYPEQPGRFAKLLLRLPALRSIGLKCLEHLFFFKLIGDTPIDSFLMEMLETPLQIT
Kind of series: holoreceptor transactivation assay, RXRγ. Type of series: cell-based.
Text: The results obtained in this assay are expressed in EC50 numbers, as they are also in the chimeric receptor transactivation assay. The results of the ligand binding assay are expressed in Ki numbers.
Particularly, the transactivation data pertaining to activation of the RAR receptors were obtained in the chimeric assay, and the transactivation data pertaining to the activation of RXR receptors were obtained in the holoreceptor assay.
as §1

[3] abbreviates: Day 1, 0 hr (immediately prior to dosing).

A word on the EC50: it is the concentration that produces a half-maximal response. Consider `CCOc1cc2c(cc1\C(CC)=C(F)/C=C/C(C)=C/C(=O)O)C(C)(C)CCC2(C)C` [Compound 2, (2E,4E,6E)-7-(3-Ethoxy-5,5,8,8-tetramethyl-5,6,7,8-tetrahydronaphthalen-2-yl)-6-fluoro-3-methylnona-2,4,6-trienoic acid], for which the EC50 on RARα (NA = not active at all as an agonist, read-out: RAR Trans. EC50 α) is 37 nM; on RXRγ (NA = not active at all as an agonist, read-out: RXR Trans. EC50 γ), 9 nM. Further, the “RAR α efficacy in percentage as compared to the standard compound” value on RARα (number in brackets) came to 15%. The Triglycerides with diabetic db/db mice [1] (setting [3]) was determined as 168 ± 74 mg/dL; with diabetic db/db mice [1] (Day 1, 3 hr) it was 142 ± 94 mg/dL; in the series on diabetic db/db mice [1] (Day 7, 0 hr), 157 ± 106 mg/dL; in the series with diabetic db/db mice [1] (Day 7, 3 hr) it was 95 ± 33 mg/dL. Moreover, in the series with diabetic db/db mice [1] (mouse, in vivo), the “effect on serum triglyceride (in words)” value is “does not affect”. Moreover, the Glucose stood at 529 ± 123 mg/dL in the series on diabetic db/db mice [2] (setting [3]); 436 ± 127 mg/dL with diabetic db/db mice [2] (Day 1, 3 hr); 414 ± 105 mg/dL with diabetic db/db mice [2] (Day 7, 0 hr); 350 ± 140 mg/dL with diabetic db/db mice [2] (Day 7, 3 hr). Also, the “effect on serum glucose in diabetic mouse (in words)” value in the series on diabetic db/db mice [2] (mouse, in vivo) is reported as “capable of lowering serum glucose”. Besides, the Serum thyroxine in the series on young db/db mice (50 mg/kg orally for 14 days, mean +/- SD (n = 7)) is 1.30 ± 0.28 µg/dL. Moreover, the “effect on serum T4 (in words)” value with young db/db mice (mouse, in vivo) is given as “does not affect”. On RXRγ (number in brackets), the “RXR γ efficacy in percentage as compared to the standard compound” value was 18%.
